Source: the supplement of paper PMC12533247
± gives the standard deviation of the averaged measurements.

Experiments:
[1] = test system: HSV-1 K26-GFP infected 3D skin equivalent; assay: % activity on HSV-1 GFP signal (0 = infected DMSO control, -100 = uninfected control); higher = higher signal (negative = inhibition / toxicity); conditions: time (h post infection): 48
Experimental: (§1)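 Triplicate dose-response (0.04 to 10 uM) of 11 top compounds in 3D bioprinted skin equivalents (submerged and ALI models) infected with GFP-HSV-1 K26 at MOI 0.1 and fixed at 48 hpi. GFP (virus) and tdTomato (fibroblast viability) signals are normalised to per-plate controls.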

[2] = test system: HSV-1 K26-GFP infected 3D skin equivalent; assay: % change of tdTomato fibroblast signal relative to infected DMSO control; higher = higher signal (negative = inhibition / toxicity); conditions: time (h post infection): 48
Experimental: as §1

[3] = test system: HSV-1 K26-GFP infected primary human skin cells; assay: % change of HSV-1 GFP signal vs untreated infected cells; higher = less antiviral inhibition; conditions: cell type: primary dermal fibroblasts, time (h post infection): 48
Experimental: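 2D primary donor-derived dermal fibroblasts infected with GFP-HSV-1 K26 at MOI 1, treated 1 h later with compound dilutions and read at 48 hpi on IncuCyte. GFP integrated intensity is normalised to mock-infected and untreated infected wells (% change; -100 = full inhibition).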

[4] = test system: HSV-1 K26-GFP infected primary human skin cells; assay: as above
Experimental: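 2D primary donor-derived keratinocytes (read at 20 hpi) and donor-matched dermal fibroblasts (read at 48 hpi) infected with GFP-HSV-1 K26 at MOI 1 and treated 1 h later with compound dilutions. IncuCyte GFP integrated intensity is normalised by subtracting mock-infected wells and dividing by untreated infected wells, shown as % change (-100 = full inhibition).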

CC(C)c1cnn2c(NCc3ccccc3-n3cccn3)nc(OC3CCCNC3)nc12 (configuration not stated) [LDC4297]
Conditions | % activity on HSV-1 GFP signal [%] | % change of HSV-1 GFP signal [%] | % change of tdTomato fibroblast signal [%]
[1], 0.041152 µM, model: ALI | -23.3 ± 22 | – | –
[1], 0.041152 µM, model: submerged | -10.7 ± 1.2 | – | –
[1], 0.123457 µM, model: ALI | -67.2 ± 25 | – | –
[1], 0.123457 µM, model: submerged | -16.1 ± 16 | – | –
[1], 0.37037 µM, model: ALI | -88.4 ± 7.3 | – | –
[1], 0.37037 µM, model: submerged | -44.7 ± 10 | – | –
[1], 1.111111 µM, model: ALI | -99.9 ± 9.8 | – | –
[1], 1.111111 µM, model: submerged | -54.4 ± 2.2 | – | –
[1], 3.33333 µM, model: ALI | -105 ± 10 | – | –
[1], 3.33333 µM, model: submerged | -74.5 ± 4.4 | – | –
[1], 10 µM, model: ALI | -99.9 ± 9.1 | – | –
[1], 10 µM, model: submerged | -94.8 ± 1 | – | –
[2], 0.041152 µM, model: ALI | – | – | -1.16 ± 2.5
[2], 0.041152 µM, model: submerged | – | – | 7.31 ± 3.4
[2], 0.123457 µM, model: ALI | – | – | -6.21 ± 6.1
[2], 0.123457 µM, model: submerged | – | – | -0.0281 ± 6.4
[2], 0.37037 µM, model: ALI | – | – | -7.32 ± 13
[2], 0.37037 µM, model: submerged | – | – | -5.4 ± 9.1
[2], 1.111111 µM, model: ALI | – | – | -9.38 ± 11
[2], 1.111111 µM, model: submerged | – | – | 8.7 ± 11
[2], 3.33333 µM, model: ALI | – | – | -3.18 ± 16
[2], 3.33333 µM, model: submerged | – | – | 7.79 ± 9.1
[2], 10 µM, model: ALI | – | – | 1.92 ± 9.9
[2], 10 µM, model: submerged | – | – | -14.8 ± 14
[3], 0.003 µM, donor: 3 | – | 20.9 ± 32 | –
[3], 0.0091 µM, donor: 3 | – | 21.8 ± 34 | –
[3], 0.0091 µM, donor: 4 | – | 2.39 ± 18 | –
[3], 0.0274 µM, donor: 3 | – | 21.6 ± 34 | –
[3], 0.0274 µM, donor: 4 | – | 1.27 ± 22 | –
[3], 0.0823 µM, donor: 3 | – | 14.2 ± 35 | –
[3], 0.0823 µM, donor: 4 | – | -5.21 ± 23 | –
[3], 0.2469 µM, donor: 3 | – | -5.39 ± 37 | –
[3], 0.2469 µM, donor: 4 | – | -24 ± 20 | –
[3], 0.7407 µM, donor: 3 | – | -27.1 ± 25 | –
[3], 0.7407 µM, donor: 4 | – | -34.7 ± 12 | –
[3], 2.2222 µM, donor: 3 | – | -57.2 ± 13 | –
[3], 2.2222 µM, donor: 4 | – | -53.3 ± 1.5 | –
[3], 6.6667 µM, donor: 3 | – | -98.3 ± 1.2 | –
[3], 6.6667 µM, donor: 4 | – | -92.4 ± 3.9 | –
[3], 20 µM, donor: 3 | – | -100.3 ± 0.64 | –
[3], 20 µM, donor: 4 | – | -99.916 ± 0.033 | –
[3], 60 µM, donor: 3 | – | -100.3 ± 0.73 | –
[3], 60 µM, donor: 4 | – | -99.83 ± 0.18 | –

% change of HSV-1 GFP signal [%], [4]
Conditions | 0.003 µM | 0.0091 µM | 0.0274 µM | 0.0823 µM | 0.2469 µM | 0.7407 µM | 2.2222 µM | 6.6667 µM | 20 µM | 60 µM
cell type: primary dermal fibroblasts, donor: 5, time (h post infection): 48 | -4.88 ± 5.9 | -5.58 ± 6.5 | -6.29 ± 5.6 | -17.5 ± 3.9 | -44.9 ± 2.6 | -60.2 ± 3.7 | -78.8 ± 1.5 | -97.65 ± 0.27 | -99.964 ± 0.014 | -99.913 ± 0.048
cell type: primary keratinocytes, donor: 3, time (h post infection): 20 | -0.466 ± 8.6 | 9.74 ± 14 | -1.73 ± 7.8 | 2.24 ± 7.3 | -13.6 ± 7.7 | -24.8 ± 10 | -42.6 ± 3.3 | -99.02 ± 0.68 | -99.87 ± 0.066 | -99.984 ± 0.018
cell type: primary keratinocytes, donor: 4, time (h post infection): 20 | -19.1 ± 46 | -22.2 ± 36 | -23.4 ± 42 | -17.1 ± 29 | -35.8 ± 24 | -61 ± 17 | -75.3 ± 1.8 | -99.7 ± 0.3 | -99.973 ± 0.043 | -100.04 ± 0.031
cell type: primary keratinocytes, donor: 5, time (h post infection): 20 | – | 7.64 ± 7.6 | 1.09 ± 8 | 0.186 ± 7.5 | -10 ± 20 | -17.4 ± 34 | -37.8 ± 28 | -99.64 ± 0.23 | -99.946 ± 0.0037 | -99.969 ± 0.017
